Data published in patent US20220387365A1, “TUCARESOL DERIVATIVES AND USES THEREOF” (BeyondSpring Pharmaceuticals, Inc., priority 2019, published 2022).
Read-outs that look alike come from different tables or passages of the source. Marks after values point to notes of the source that are not given here.

What was measured:
MC-38 tumor cells = test: In vivo efficacy in subcutaneous MC-38 murine colorectal cancer model (Example 9); set-up: species or system C57BL/6 mice
Experimental: This study evaluated preclinically the in vivo therapeutic efficacy of Compound C02 as a single agent and in combination with anti-PD-1 antibody in the treatment of subcutaneous MC-38 colorectal cancer models in C57BL/6 mice.
Treatment regimen may be changed per BW loss or other adverse effect according to rules set forth and/or client requests. When dosed on the same day, vehicle for CO2 was administered about 1-2 hours after the dosing of anti-PD1 or control IgG.
The […] tumor cells were maintained in vitro as a monolayer culture in RPMI-1640 supplemented with 10% fetal bovine serum at 37° C. in an atmosphere of 5% CO2 in air. The cells in an exponential growth phase were harvested and counted for tumor inoculation. […]
After tumor cells inoculation, the animals were checked daily for morbidity and mortality. During routine monitoring, the animals were checked for any effects of tumor growth and treatments on behavior such as mobility, food and water consumption, body weight gain/loss (body weights will be measured twice per week after randomization), eye/hair matting and any other abnormalities. Mortality and observed clinical signs were recorded for individual animals in detail. […]
Rectal temperature was recorded without anaesthesia on the day prior to the first dosing and on the day after the last oral dose.

[1] = Intravenous and oral dosing pharmacokinetic screen, plasma concentration by LC/MS/MS; set-up: species or system C57BL/6 mice; conditions: male, C57BL/6, mouse, in vivo
Experimental: (§1) Tucaresol, Compound B02, Compound C01, Compound C02-1, and Compound C02 were dosed once, by IV bolus (3 mg/kg in 20% hydroxyprophyl-13-cyclodextrin with 1 eq NaOH) or PO (10 mg/kg in 1% carboxymethylcellulose/0.1% tween-80 in water), to non-fasted male C57BL/6 mice. Animals were bled from the dorsal metatarsal vein (from the heart for 24 hour time point) for K2-EDTA plasma 0.083 (for IV only), 0.25, 0.5, 1, 2, 4, 8, and 24 hours after dosing. The plasma concentration of the dosed tucaresol or compound were measured by LC/MS/MS (I-CMS-8060 instrument for MS). PK parameters were then calculated with WinNonlin 6.1. For Compounds C01, CO2 and CO2-1, stability in C57BL/6 K2EDTA plasma was also evaluated at 22° C. over 1 hour by utilizing LC.

[2] = Stability in C57BL/6 K2EDTA plasma at 22° C. over 1 hour by LC; format: in vitro ADME, mouse; conditions: for Remaining %: mouse plasma, 2,000 ng/mL, 22°C
Experimental: as §1
Compounds C01 and C02-1 are unstable at 22° C.

[3] = Body weight in MC38 model (Example 10); format: in vivo; conditions: for Mean Body Weight: in g (unit assumed)
Experimental: After tumor cell inoculation, the animals were checked daily for morbidity and mortality. During routine monitoring, the animals were checked for any effects of tumor growth and treatments on behavior such as mobility, food and water consumption, body weight gain/loss (Body weights were measured three times a week after randomization), eye/hair matting and any other abnormalities. Mortality and observed clinical signs were recorded for individual animals in detail.
Tumor volumes were measured three times a week after randomization in two dimensions using a caliper, and the volume was expressed in mm^3 using the formula: V=(L×W×W)/2, where V is tumor volume, L is tumor length (the longest tumor dimension) and W is tumor width (the longest tumor dimension perpendicular to L). Dosing as well as tumor and body weight measurements were conducted in a Laminar Flow Cabinet. The body weights and tumor volumes were measured by using StudyDirector™ software (version 3.1.399.19).
After one measurement of body weight loss (BWL)>20% or BWL>15% for consecutive 72 hours, the individual mouse was sacrificed. BWL was calculated based on the BW of mouse on the first day of treatment. After one measurement of BWL>15%, dosing holidays were given to the individual mouse with BWL>15% which was housed in a separate cage alone with daily monitoring for 72 hours, while other mice in the same group would receive dosing as scheduled., treatment was resumed when the BWL has recovered to BWL<10%. Supplemental gel was supplied to all the animals in the study on day 5 to day 15 upon sponsor's request.
The body weight of all animals was monitored throughout the study and animals were euthanized if they lost over 15% of their body weight relative to the weight at the first day of treatment for 3 consecutive days, or lose over 20% of their body weight relative to the weight at the first day of treatment.

[4] = iv, 3 mg/kg, Compound C02 concentration
[5] = iv, 3 mg/kg, Compound C02 concentration, Mean
[6] = iv, 3 mg/kg, Tucaresol concentration
[7] = iv, 3 mg/kg, Tucaresol concentration, Mean
[8] = po, 10 mg/kg, Tucaresol concentration
[9] = po, 10 mg/kg, Tucaresol concentration, Mean

## O=Cc1c(OCc2ccc(C(=O)O)cc2)cccc1OC1O[C@H](CO)[C@@H](O)[C@H](O)[C@H]1O (stereo partly drawn) [Compound C02]
MC-38 tumor cells; QDx5, as a monotherapy or in combination with anti-PD1
  time of treatment after which the benefits were especially apparent: 15 to 20 days
MC-38 tumor cells; QDx5 dosing, down to 10 mg/kg QDx5
  dose response of efficacy (in words): inverse dose response relationship
[1]
  AUClast/D: 947 ng·h/mL per mg/kg
  T1/2: 3.94 h
  Tmax: 0.500 h
[1]; iv, 3 mg/kg, 0.083 h
  Tucaresol concentration, Mean: 28.3 ng/mL
[1]; iv, 3 mg/kg, 0.25 h
  Tucaresol concentration, Mean: 128 ng/mL
[1]; iv, 3 mg/kg, 0.5 h
  Tucaresol concentration, Mean: 165 ng/mL
[1]; iv, 3 mg/kg, 1 h
  Tucaresol concentration, Mean: 123 ng/mL
[1]; iv, 3 mg/kg, 2 h
  Tucaresol concentration, Mean: 114 ng/mL
[1]; iv, 3 mg/kg, 4 h
  Tucaresol concentration, Mean: 76.1 ng/mL
[1]; iv, 3 mg/kg, 8 h
  Tucaresol concentration, Mean: 37.1 ng/mL
[1]; [4]
  concentration at 0.083 h: 1830 ng/mL
  concentration at 0.25 h: 537 ng/mL
[1]; [5]
  concentration at 0.083 h: 2390 ng/mL
  concentration at 0.25 h: 578 ng/mL
  concentration at 0.5 h: 220 ng/mL
[1]; po, 10 mg/kg, 0.25 h
  Tucaresol concentration, Mean: 972 ng/mL
[1]; po, 10 mg/kg, 0.5 h
  Tucaresol concentration, Mean: 1398 ng/mL
[1]; po, 10 mg/kg, 1 h
  Tucaresol concentration, Mean: 915 ng/mL
[1]; po, 10 mg/kg, 2 h
  Tucaresol concentration, Mean: 532 ng/mL
[1]; po, 10 mg/kg, 4 h
  Tucaresol concentration, Mean: 390 ng/mL
[1]; po, 10 mg/kg, 8 h
  Tucaresol concentration, Mean: 241 ng/mL
[1]; po, 10 mg/kg, 24 h
  Tucaresol concentration, Mean: 12.3 ng/mL
[1]; po, 10 mg/kg, C02 concentration
  concentration at 0.5 h: 59.1 ng/mL
[2]; 22° C.
  mouse plasma stability (in words): initial instability
[2]; 0 min
  Remaining %: 100%
[2]; 5 min
  Remaining %: 62.3%
[2]; 15 min
  Remaining %: 79.6%
[2]; 30 min
  Remaining %: 68.7%
[2]; 60 min
  Remaining %: 61.7%
[2]; mouse plasma, 22° C., through 1 hour
  level of starting at which the compound leveled off: 60-70%
[3]; 20 mg/kg, PO, QDx5 (day 1-5), as a monotherapy or in combination with anti-PD1
  weight loss (in words): not associated with weight loss
[3]; Day 1, Group 02: C02 20 mg/kg p.o. QD × 5 (day 1~5) + Rat IgG2a 10 mg/kg i.p. BIW
  Mean Body Weight: 18.9 ± 0.2
[3]; Day 1, Group 04: C02 20 mg/kg p.o. QD × 5 (day 1~5) in combination with PD-1 (RMP 1-14) 10 mg/kg i.p. BIW × 6 doses
  Mean Body Weight: 19.2 ± 0.2
[3]; Day 4, Group 02: C02 20 mg/kg p.o. QD × 5 (day 1~5) + Rat IgG2a 10 mg/kg i.p. BIW
  Mean Body Weight: 19.2 ± 0.2
[3]; Day 4, Group 04: C02 20 mg/kg p.o. QD × 5 (day 1~5) in combination with PD-1 (RMP 1-14) 10 mg/kg i.p. BIW × 6 doses
  Mean Body Weight: 19.3 ± 0.2
[3]; Day 8, Group 02: C02 20 mg/kg p.o. QD × 5 (day 1~5) + Rat IgG2a 10 mg/kg i.p. BIW
  Mean Body Weight: 19.6 ± 0.2
[3]; Day 8, Group 04: C02 20 mg/kg p.o. QD × 5 (day 1~5) in combination with PD-1 (RMP 1-14) 10 mg/kg i.p. BIW × 6 doses
  Mean Body Weight: 19.9 ± 0.1
[3]; Day 10, Group 02: C02 20 mg/kg p.o. QD × 5 (day 1~5) + Rat IgG2a 10 mg/kg i.p. BIW
  Mean Body Weight: 20 ± 0.3
[3]; Day 10, Group 04: C02 20 mg/kg p.o. QD × 5 (day 1~5) in combination with PD-1 (RMP 1-14) 10 mg/kg i.p. BIW × 6 doses
  Mean Body Weight: 20.3 ± 0.2
[3]; Day 12, Group 02: C02 20 mg/kg p.o. QD × 5 (day 1~5) + Rat IgG2a 10 mg/kg i.p. BIW
  Mean Body Weight: 20.6 ± 0.4
[3]; Day 12, Group 04: C02 20 mg/kg p.o. QD × 5 (day 1~5) in combination with PD-1 (RMP 1-14) 10 mg/kg i.p. BIW × 6 doses
  Mean Body Weight: 21 ± 0.2
[3]; Day 15, Group 02: C02 20 mg/kg p.o. QD × 5 (day 1~5) + Rat IgG2a 10 mg/kg i.p. BIW
  Mean Body Weight: 22.3 ± 0.5
[3]; Day 15, Group 04: C02 20 mg/kg p.o. QD × 5 (day 1~5) in combination with PD-1 (RMP 1-14) 10 mg/kg i.p. BIW × 6 doses
  Mean Body Weight: 21.9 ± 0.4

## O=Cc1c(O)cccc1OCc1ccc(C(=O)O)cc1 [Tucaresol]
[1]
  AUClast/D: 825 ng·h/mL per mg/kg
  F: 75.0%
  T1/2: 4.67 h
  Tmax: 0.250 h
[1]; [6]
  concentration at 0.083 h: 1360 ng/mL
  concentration at 0.25 h: 1240 ng/mL
  concentration at 0.5 h: 972 ng/mL
  concentration at 1 h: 623 ng/mL
  concentration at 2 h: 473 ng/mL
  concentration at 4 h: 122 ng/mL
  concentration at 8 h: 73.6 ng/mL
  concentration at 24 h: 12 ng/mL
[1]; [7]
  concentration at 0.083 h: 1890 ng/mL
  concentration at 0.25 h: 1330 ng/mL
  concentration at 0.5 h: 985 ng/mL
  concentration at 1 h: 707 ng/mL
  concentration at 2 h: 421 ng/mL
  concentration at 4 h: 115 ng/mL
  concentration at 8 h: 73.4 ng/mL
  concentration at 24 h: 9.5 ng/mL
[1]; po, 10 mg/kg, 8 h
  Tucaresol concentration: 164* ng/mL
[1]; [8]
  concentration at 0.25 h: 2930 ng/mL
  concentration at 0.5 h: 2770 ng/mL
  concentration at 1 h: 1870 ng/mL
  concentration at 2 h: 822 ng/mL
  concentration at 4 h: 603 ng/mL
  concentration at 8 h: 185 ng/mL
  concentration at 24 h: 26.3 ng/mL
[1]; [9]
  concentration at 0.25 h: 3040 ng/mL
  concentration at 0.5 h: 2410 ng/mL
  concentration at 1 h: 1750 ng/mL
  concentration at 2 h: 881 ng/mL
  concentration at 4 h: 614 ng/mL
  concentration at 8 h: 190 ng/mL
  concentration at 24 h: 26 ng/mL
[1]; Tucaresol PO 10 mg/kg, 8 h, single mice, read-out: Tucaresol concentration
  concentration at 8 h: 222 ng/mL
